Measurements: patent publication US10688200B2, “Urea-based prostate specific membrane antigen (PSMA) inhibitors for imaging and therapy” (Five Eleven Pharma Inc., priority 2015, dated 2020)

Columns and labels:
PSMA [1] = experiment: In vitro autoradiography of LNCaP tumor and mouse kidney sections; format: binding; conditions: incubation with 2-PMPA
Procedure: LNCaP tumor and mouse kidneys were cut at 20 μm on a cryostat, thaw-mounted onto slides. Slides are incubated with radiotracers (3 μCi/ml) in PBS for 30 min and washed with PBS twice for 3 min each. After drying, the slides put into a plate for exposure for 30 min. Images were acquired with Typhoon FLA 7000 (GE Healthcare).
To validate the PSMA binding, in vitro autoradiography studies using LNCaP tumor and mouse kidney sections were carried out.
FIGS. 2A-2K show in vitro autoradiography of LNCaP tumor (left side) and mouse kidney sections (right side). […] These new PSMA target compounds, display high uptake in the sections. [^68Ga]1a (PSMA-11) was used as a control.

[2] = system: PSMA expressing LNCaP cells; experiment: Cell uptake comparisons in LNCaP cells (FIG. 1); format: cell-based, human; conditions: 1 hr at 37° C.
Procedure: Cell uptake studies were performed using PSMA expressing LNCaP cells. Cells were grown in 6 well plates for 2 days. After incubation with ^68Ga-labeled ligands for 1 hr at 37° C., media were removed. After washing twice with 3 mL PBS buffer, cells were lysed with 0.1 N NaOH. Lysed cells were wiped with filter paper and radioactivity in filter paper was measured with a gamma counter.
The LNCaP cells over express PSMA receptor binding sites, the level of binding, % uptake/well, was an indicator of PSMA binding, the higher the better. [^68Ga]1a, a known PSMA imaging agent (PSMA-11), was used as a control.

PSMA [3] = target: T1, PSMA (Homo sapiens, UniProt Q04609); experiment: In vitro binding signals of 68Ga labeled ligands in LNCaP tumor homogenates; conditions: Ga-68 radiolabeled ligands; for Nonspecific binding (NSB): with 1a (PSMA11) 10 μM
T1 construct: 100 μL of freshly harvested PSMA cells; endogenous in cells; host or cells: 'PSMA cells' in the method

[4] = Biodistribution of radiotracers in normal mice; format: in vivo, mouse; conditions: normal male mice
Procedure, shortened: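 Male CD-1 mice received 35 μCi [^68Ga] radiotracer (0.2 nmole ligand) by tail vein. Four mice per time point sacrificed at 2, 30, 60 and 120 min p.i.; organs and blood weighed and gamma counted. %ID/g calculated against a standard dilution of the dose, decay-corrected.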

T1 sequence (Q04609 whole entry): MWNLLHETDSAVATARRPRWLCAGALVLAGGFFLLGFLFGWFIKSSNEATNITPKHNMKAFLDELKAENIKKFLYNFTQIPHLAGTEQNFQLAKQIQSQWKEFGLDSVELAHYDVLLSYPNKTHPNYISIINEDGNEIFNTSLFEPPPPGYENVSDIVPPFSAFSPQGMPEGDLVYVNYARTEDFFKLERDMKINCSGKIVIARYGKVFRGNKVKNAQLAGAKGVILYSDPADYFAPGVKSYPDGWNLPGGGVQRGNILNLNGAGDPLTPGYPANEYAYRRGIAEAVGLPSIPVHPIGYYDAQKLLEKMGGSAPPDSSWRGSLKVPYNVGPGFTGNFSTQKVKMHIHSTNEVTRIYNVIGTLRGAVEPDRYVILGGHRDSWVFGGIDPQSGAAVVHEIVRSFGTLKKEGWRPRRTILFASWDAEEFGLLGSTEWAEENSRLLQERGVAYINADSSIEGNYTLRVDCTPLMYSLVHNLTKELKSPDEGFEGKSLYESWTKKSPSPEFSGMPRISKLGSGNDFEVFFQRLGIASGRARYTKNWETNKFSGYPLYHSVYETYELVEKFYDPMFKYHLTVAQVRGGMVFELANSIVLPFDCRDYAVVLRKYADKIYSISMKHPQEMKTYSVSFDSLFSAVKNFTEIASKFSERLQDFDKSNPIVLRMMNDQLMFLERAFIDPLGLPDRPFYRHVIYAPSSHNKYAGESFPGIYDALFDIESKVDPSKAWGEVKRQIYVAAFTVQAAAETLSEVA

2-(3-mercaptopropyl)pentane-dioic acid [Compound 2-PMPA]
Blocking of radiotracer binding in autoradiography, in words (PSMA [1]): blocked radiotracers' binding to tumor and kidney

O=C(O)CCc1ccc2c(n1)C[N+]13CC[N+]45CC(=O)[O][68Ga-3]14([O]C(=O)C3)([O]2)[O]c1ccc(CCC(=O)NCCCCCC(=O)NCCCC[C@H](NC(=O)N[C@@H](CCC(=O)O)C(=O)O)C(=O)O)nc1C5 (some centres unmarked) [[^68Ga]2]
Cell uptake (% uptake/well), in words [2]: low cell uptakes | Specific binding (SB) SB = TB − NSB (PSMA [3]): lower specific binding | Nonspecific binding (NSB) (PSMA [3]): high nonspecific binding | Biodistribution: Blood ([4]; 2 min): 8.92 ± 0.75 % dose/g | Biodistribution: Bone ([4]; 2 min): 2.18 ± 0.08 % dose/g | Biodistribution: Brain ([4]; 2 min): 0.24 ± 0.02 % dose/g | Biodistribution: Heart ([4]; 2 min): 3.40 ± 0.45 % dose/g | Biodistribution: Kidney ([4]; 2 min): 56.4 ± 8.05 % dose/g | Biodistribution: Liver ([4]; 2 min): 2.01 ± 0.08 % dose/g | Biodistribution: Lung ([4]; 2 min): 5.18 ± 0.52 % dose/g | Biodistribution: Muscle ([4]; 2 min): 2.00 ± 0.25 % dose/g | Biodistribution: Pancreas ([4]; 2 min): 1.85 ± 0.17 % dose/g | Biodistribution: Skin ([4]; 2 min): 3.07 ± 0.05 % dose/g | Biodistribution: Spleen ([4]; 2 min): 3.57 ± 0.20 % dose/g | Biodistribution: Blood ([4]; 30 min): 1.18 ± 0.15 % dose/g | Biodistribution: Bone ([4]; 30 min): 0.48 ± 0.02 % dose/g | Biodistribution: Brain ([4]; 30 min): 0.05 ± 0.00 % dose/g | Biodistribution: Heart ([4]; 30 min): 0.51 ± 0.03 % dose/g | Biodistribution: Kidney ([4]; 30 min): 108 ± 8.66 % dose/g | Biodistribution: Liver ([4]; 30 min): 0.33 ± 0.01 % dose/g | Biodistribution: Lung ([4]; 30 min): 1.07 ± 0.12 % dose/g | Biodistribution: Muscle ([4]; 30 min): 0.46 ± 0.03 % dose/g | Biodistribution: Pancreas ([4]; 30 min): 0.76 ± 0.12 % dose/g | Biodistribution: Skin ([4]; 30 min): 0.88 ± 0.08 % dose/g | Biodistribution: Spleen ([4]; 30 min): 1.33 ± 0.08 % dose/g | Biodistribution: Blood ([4]; 60 min): 0.89 ± 0.10 % dose/g | Biodistribution: Bone ([4]; 60 min): 0.43 ± 0.01 % dose/g | Biodistribution: Brain ([4]; 60 min): 0.03 ± 0.00 % dose/g | Biodistribution: Heart ([4]; 60 min): 0.33 ± 0.02 % dose/g | Biodistribution: Kidney ([4]; 60 min): 67.8 ± 15.57 % dose/g | Biodistribution: Liver ([4]; 60 min): 0.25 ± 0.06 % dose/g | Biodistribution: Lung ([4]; 60 min): 0.72 ± 0.16 % dose/g | Biodistribution: Muscle ([4]; 60 min): 0.24 ± 0.01 % dose/g | Biodistribution: Pancreas ([4]; 60 min): 0.44 ± 0.08 % dose/g | Biodistribution: Skin ([4]; 60 min): 0.46 ± 0.10 % dose/g | Biodistribution: Spleen ([4]; 60 min): 0.84 ± 0.24 % dose/g | Biodistribution: Blood ([4]; 120 min): 0.78 ± 0.04 % dose/g | Biodistribution: Bone ([4]; 120 min): 0.60 ± 0.03 % dose/g | Biodistribution: Brain ([4]; 120 min): 0.03 ± 0.01 % dose/g | Biodistribution: Heart ([4]; 120 min): 0.28 ± 0.02 % dose/g | Biodistribution: Kidney ([4]; 120 min): 26.9 ± 6.13 % dose/g | Biodistribution: Liver ([4]; 120 min): 0.22 ± 0.01 % dose/g | Biodistribution: Lung ([4]; 120 min): 0.45 ± 0.01 % dose/g | Biodistribution: Muscle ([4]; 120 min): 0.18 ± 0.01 % dose/g | Biodistribution: Pancreas ([4]; 120 min): 0.30 ± 0.04 % dose/g | Biodistribution: Skin ([4]; 120 min): 0.29 ± 0.03 % dose/g | Biodistribution: Spleen ([4]; 120 min): 0.36 ± 0.04 % dose/g

O=C(O)CC[C@H](NC(=O)N[C@@H](CCCCNC(=O)CCCCCNC(=O)CCc1ccc2c(n1)C[N+]13CC[N+]45CC(=O)[O][68Ga-3]14([O]C(=O)C3)([O]2)[O]c1ccc(CCC(=O)NCCCCCC(=O)NCCCC[C@H](NC(=O)N[C@@H](CCC(=O)O)C(=O)O)C(=O)O)nc1C5)C(=O)O)C(=O)O (some centres unmarked) [[^68Ga]3]
Cell uptake (% uptake/well), in words [2]: low cell uptakes | Specific binding (SB) SB = TB − NSB (PSMA [3]): lower specific binding | Nonspecific binding (NSB) (PSMA [3]): high nonspecific binding | Biodistribution: Blood ([4]; 2 min): 8.94 ± 1.57 % dose/g | Biodistribution: Bone ([4]; 2 min): 3.53 ± 0.96 % dose/g | Biodistribution: Brain ([4]; 2 min): 0.33 ± 0.06 % dose/g | Biodistribution: Heart ([4]; 2 min): 4.34 ± 1.15 % dose/g | Biodistribution: Kidney ([4]; 2 min): 56.2 ± 6.53 % dose/g | Biodistribution: Liver ([4]; 2 min): 3.42 ± 0.11 % dose/g | Biodistribution: Lung ([4]; 2 min): 7.49 ± 2.71 % dose/g | Biodistribution: Muscle ([4]; 2 min): 2.02 ± 0.74 % dose/g | Biodistribution: Pancreas ([4]; 2 min): 2.89 ± 0.61 % dose/g | Biodistribution: Skin ([4]; 2 min): 2.63 ± 0.48 % dose/g | Biodistribution: Spleen ([4]; 2 min): 5.14 ± 1.49 % dose/g | Biodistribution: Blood ([4]; 30 min): 3.19 ± 0.72 % dose/g | Biodistribution: Bone ([4]; 30 min): 1.70 ± 0.20 % dose/g | Biodistribution: Brain ([4]; 30 min): 0.09 ± 0.01 % dose/g | Biodistribution: Heart ([4]; 30 min): 0.93 ± 0.22 % dose/g | Biodistribution: Kidney ([4]; 30 min): 94.4 ± 13.7 % dose/g | Biodistribution: Liver ([4]; 30 min): 1.71 ± 0.05 % dose/g | Biodistribution: Lung ([4]; 30 min): 1.38 ± 0.17 % dose/g | Biodistribution: Muscle ([4]; 30 min): 1.53 ± 0.68 % dose/g | Biodistribution: Pancreas ([4]; 30 min): 1.36 ± 0.32 % dose/g | Biodistribution: Skin ([4]; 30 min): 1.48 ± 0.34 % dose/g | Biodistribution: Spleen ([4]; 30 min): 4.35 ± 0.37 % dose/g | Biodistribution: Blood ([4]; 60 min): 1.52 ± 0.44 % dose/g | Biodistribution: Bone ([4]; 60 min): 2.34 ± 1.08 % dose/g | Biodistribution: Brain ([4]; 60 min): 0.06 ± 0.04 % dose/g | Biodistribution: Heart ([4]; 60 min): 0.82 ± 0.22 % dose/g | Biodistribution: Kidney ([4]; 60 min): 61.3 ± 5.97 % dose/g | Biodistribution: Liver ([4]; 60 min): 1.81 ± 0.14 % dose/g | Biodistribution: Lung ([4]; 60 min): 1.29 ± 0.31 % dose/g | Biodistribution: Muscle ([4]; 60 min): 1.01 ± 0.29 % dose/g | Biodistribution: Pancreas ([4]; 60 min): 1.34 ± 0.45 % dose/g | Biodistribution: Skin ([4]; 60 min): 2.35 ± 0.34 % dose/g | Biodistribution: Spleen ([4]; 60 min): 1.75 ± 0.17 % dose/g | Biodistribution: Blood ([4]; 120 min): 1.00 ± 0.30 % dose/g | Biodistribution: Bone ([4]; 120 min): 3.56 ± 1.08 % dose/g | Biodistribution: Brain ([4]; 120 min): 0.05 ± 0.02 % dose/g | Biodistribution: Heart ([4]; 120 min): 0.84 ± 0.20 % dose/g | Biodistribution: Kidney ([4]; 120 min): 30.3 ± 8.87 % dose/g | Biodistribution: Liver ([4]; 120 min): 2.00 ± 0.20 % dose/g | Biodistribution: Lung ([4]; 120 min): 0.97 ± 0.12 % dose/g | Biodistribution: Muscle ([4]; 120 min): 1.13 ± 0.50 % dose/g | Biodistribution: Pancreas ([4]; 120 min): 1.21 ± 0.19 % dose/g | Biodistribution: Skin ([4]; 120 min): 1.22 ± 0.20 % dose/g | Biodistribution: Spleen ([4]; 120 min): 1.71 ± 0.56 % dose/g
